# Measurements from ChEMBL document CHEMBL1909046, “DrugMatrix in vitro pharmacology data”.
# Key:
# Cytochrome P450 2A6 = biological target: T1, Cytochrome P450 2A6 (Homo sapiens, UniProt P11509); conditions: bti-tn-5b1-4; note: in other assays of this panel Not Active means under 50% inhibition at 10 µM
# T1 sequence (P11509 whole entry): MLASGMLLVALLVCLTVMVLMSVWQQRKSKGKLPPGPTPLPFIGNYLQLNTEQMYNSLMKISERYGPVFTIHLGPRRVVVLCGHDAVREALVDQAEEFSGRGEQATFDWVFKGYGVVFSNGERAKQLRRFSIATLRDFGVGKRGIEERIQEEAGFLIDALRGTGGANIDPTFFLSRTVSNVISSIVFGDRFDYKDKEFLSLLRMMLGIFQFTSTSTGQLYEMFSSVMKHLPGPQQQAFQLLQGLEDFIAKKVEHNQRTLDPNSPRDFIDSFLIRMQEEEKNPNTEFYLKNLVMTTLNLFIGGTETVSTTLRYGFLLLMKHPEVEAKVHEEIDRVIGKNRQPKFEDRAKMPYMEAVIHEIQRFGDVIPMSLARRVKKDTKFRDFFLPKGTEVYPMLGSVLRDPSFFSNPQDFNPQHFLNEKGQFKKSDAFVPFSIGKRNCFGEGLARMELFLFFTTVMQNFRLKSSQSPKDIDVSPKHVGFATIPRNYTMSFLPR
# [1] = biological target: 5-hydroxytryptamine receptor 4 (Cavia porcellus, UniProt O70528); assay type: cell membranes, Dunkin-Hartley, Striatum, Membrane; conditions: for Ki: read-out: Ki; for all read-outs here: in other assays of this panel Not Active means under 50% inhibition at 10 µM
# [2] = biological target: Voltage-gated inwardly rectifying potassium channel KCNH2 (Homo sapiens, UniProt Q12809); conditions: hek293; note: in other assays of this panel Not Active means under 50% inhibition at 10 µM
# [3] = biological target: T2, Type-2 angiotensin II receptor (Homo sapiens, UniProt P50052); assay type: cell-based; conditions: cho-k1; note: in other assays of this panel Not Active means under 50% inhibition at 10 µM
# T2 sequence (P50052 whole entry): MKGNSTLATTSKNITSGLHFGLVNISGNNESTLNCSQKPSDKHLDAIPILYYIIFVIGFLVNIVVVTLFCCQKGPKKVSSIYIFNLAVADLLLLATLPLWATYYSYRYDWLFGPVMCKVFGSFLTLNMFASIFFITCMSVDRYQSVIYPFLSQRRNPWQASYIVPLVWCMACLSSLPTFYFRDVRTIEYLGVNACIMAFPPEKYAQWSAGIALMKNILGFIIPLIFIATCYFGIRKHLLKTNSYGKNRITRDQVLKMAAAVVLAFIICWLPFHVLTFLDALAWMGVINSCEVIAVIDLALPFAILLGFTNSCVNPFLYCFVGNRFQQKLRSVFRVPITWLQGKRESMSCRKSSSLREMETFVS
# Histamine H2 receptor = Histamine H2 receptor (Homo sapiens, UniProt P25021); assay type: cell membranes, CHO-K1, Membrane; conditions: cho-k1; note: in other assays of this panel Not Active means under 50% inhibition at 10 µM
# [4] = biological target: T3, Angiotensin-converting enzyme (Oryctolagus cuniculus, UniProt P12822); assay type: tissue-based, Lung
# T3 sequence (P12822 whole entry): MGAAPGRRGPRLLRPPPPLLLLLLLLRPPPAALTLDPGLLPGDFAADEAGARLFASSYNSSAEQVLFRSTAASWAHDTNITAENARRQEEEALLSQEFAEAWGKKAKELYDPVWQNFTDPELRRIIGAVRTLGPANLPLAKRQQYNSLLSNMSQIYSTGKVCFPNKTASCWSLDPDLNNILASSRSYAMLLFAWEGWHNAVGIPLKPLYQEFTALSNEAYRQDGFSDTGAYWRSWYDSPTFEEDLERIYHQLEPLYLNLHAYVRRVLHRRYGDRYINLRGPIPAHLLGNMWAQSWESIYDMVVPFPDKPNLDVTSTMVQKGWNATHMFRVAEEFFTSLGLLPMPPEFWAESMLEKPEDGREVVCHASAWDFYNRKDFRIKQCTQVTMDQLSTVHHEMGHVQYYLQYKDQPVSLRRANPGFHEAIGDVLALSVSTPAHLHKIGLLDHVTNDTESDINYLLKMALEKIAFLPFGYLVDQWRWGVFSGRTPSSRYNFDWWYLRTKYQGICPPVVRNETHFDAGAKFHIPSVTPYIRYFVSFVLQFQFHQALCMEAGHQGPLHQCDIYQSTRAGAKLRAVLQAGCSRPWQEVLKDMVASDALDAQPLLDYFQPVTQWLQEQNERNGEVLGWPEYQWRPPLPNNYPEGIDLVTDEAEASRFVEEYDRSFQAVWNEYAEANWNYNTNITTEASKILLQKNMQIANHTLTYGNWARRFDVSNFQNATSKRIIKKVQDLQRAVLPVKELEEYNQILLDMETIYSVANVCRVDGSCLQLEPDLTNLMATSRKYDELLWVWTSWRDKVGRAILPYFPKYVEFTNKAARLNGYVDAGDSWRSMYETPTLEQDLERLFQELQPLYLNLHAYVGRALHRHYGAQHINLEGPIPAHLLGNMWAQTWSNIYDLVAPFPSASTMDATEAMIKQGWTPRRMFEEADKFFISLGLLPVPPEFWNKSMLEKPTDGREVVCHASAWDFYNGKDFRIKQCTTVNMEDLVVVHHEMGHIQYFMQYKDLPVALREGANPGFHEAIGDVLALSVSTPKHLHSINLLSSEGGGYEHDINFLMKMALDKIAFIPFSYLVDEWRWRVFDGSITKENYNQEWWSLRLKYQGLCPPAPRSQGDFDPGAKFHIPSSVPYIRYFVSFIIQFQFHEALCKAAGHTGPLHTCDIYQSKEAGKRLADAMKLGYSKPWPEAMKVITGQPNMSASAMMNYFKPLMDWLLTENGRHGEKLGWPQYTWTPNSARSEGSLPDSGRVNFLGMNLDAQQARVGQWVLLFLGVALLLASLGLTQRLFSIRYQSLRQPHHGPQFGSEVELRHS
# Adenosine receptor A1 = biological target: T4, Adenosine receptor A1 (Homo sapiens, UniProt P30542); assay type: cell membranes, Membrane; conditions: cho
# T4 sequence (P30542 whole entry): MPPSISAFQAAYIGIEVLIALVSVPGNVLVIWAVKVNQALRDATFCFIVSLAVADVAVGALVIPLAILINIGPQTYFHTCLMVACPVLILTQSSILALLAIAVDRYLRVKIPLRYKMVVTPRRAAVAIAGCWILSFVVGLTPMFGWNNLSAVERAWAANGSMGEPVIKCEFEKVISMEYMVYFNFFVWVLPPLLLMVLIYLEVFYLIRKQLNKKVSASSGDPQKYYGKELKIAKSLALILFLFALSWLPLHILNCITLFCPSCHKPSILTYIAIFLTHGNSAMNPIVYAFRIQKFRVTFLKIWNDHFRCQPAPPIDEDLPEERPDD
# [5] = DRUGMATRIX: Glutamate, AMPA radioligand binding (ligand: [3H] AMPA); assay type: cell membranes, Rattus norvegicus, Wistar, Cerebral cortex, Membrane; conditions: Not Active = under 50% inhibition at 10 µM
# Chain of Voltage-gated inwardly rectifying potassium channel KCNH2 (Q12809 whole entry): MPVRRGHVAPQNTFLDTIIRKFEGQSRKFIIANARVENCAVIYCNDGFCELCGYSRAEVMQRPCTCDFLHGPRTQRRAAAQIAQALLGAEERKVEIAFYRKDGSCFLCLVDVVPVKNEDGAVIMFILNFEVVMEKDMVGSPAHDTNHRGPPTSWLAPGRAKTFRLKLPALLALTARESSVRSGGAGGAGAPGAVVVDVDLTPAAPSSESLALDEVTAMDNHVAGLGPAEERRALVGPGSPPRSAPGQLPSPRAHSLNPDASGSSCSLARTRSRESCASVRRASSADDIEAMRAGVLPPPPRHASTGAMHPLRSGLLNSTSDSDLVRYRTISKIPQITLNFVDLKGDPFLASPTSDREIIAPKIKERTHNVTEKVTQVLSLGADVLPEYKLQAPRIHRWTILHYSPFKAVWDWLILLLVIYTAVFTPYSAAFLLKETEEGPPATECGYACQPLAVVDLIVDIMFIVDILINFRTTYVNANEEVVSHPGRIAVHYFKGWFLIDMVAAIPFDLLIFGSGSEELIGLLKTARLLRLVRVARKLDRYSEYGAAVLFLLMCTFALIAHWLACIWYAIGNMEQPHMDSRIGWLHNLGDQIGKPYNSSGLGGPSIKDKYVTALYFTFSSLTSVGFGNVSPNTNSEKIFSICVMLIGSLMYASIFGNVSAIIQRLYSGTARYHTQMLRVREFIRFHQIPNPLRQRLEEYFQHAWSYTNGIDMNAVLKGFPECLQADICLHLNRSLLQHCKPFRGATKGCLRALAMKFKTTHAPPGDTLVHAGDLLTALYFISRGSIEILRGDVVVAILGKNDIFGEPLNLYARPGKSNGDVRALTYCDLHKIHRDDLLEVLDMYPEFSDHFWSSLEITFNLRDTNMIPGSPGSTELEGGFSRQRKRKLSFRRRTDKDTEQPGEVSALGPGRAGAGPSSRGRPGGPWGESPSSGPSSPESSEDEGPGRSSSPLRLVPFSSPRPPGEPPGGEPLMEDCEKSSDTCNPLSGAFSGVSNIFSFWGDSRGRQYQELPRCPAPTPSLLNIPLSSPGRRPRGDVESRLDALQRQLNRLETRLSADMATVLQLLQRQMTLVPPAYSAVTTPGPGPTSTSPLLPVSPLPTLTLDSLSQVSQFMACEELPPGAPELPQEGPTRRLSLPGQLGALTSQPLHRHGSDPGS
# Chain of 5-hydroxytryptamine receptor 4 (O70528 whole entry): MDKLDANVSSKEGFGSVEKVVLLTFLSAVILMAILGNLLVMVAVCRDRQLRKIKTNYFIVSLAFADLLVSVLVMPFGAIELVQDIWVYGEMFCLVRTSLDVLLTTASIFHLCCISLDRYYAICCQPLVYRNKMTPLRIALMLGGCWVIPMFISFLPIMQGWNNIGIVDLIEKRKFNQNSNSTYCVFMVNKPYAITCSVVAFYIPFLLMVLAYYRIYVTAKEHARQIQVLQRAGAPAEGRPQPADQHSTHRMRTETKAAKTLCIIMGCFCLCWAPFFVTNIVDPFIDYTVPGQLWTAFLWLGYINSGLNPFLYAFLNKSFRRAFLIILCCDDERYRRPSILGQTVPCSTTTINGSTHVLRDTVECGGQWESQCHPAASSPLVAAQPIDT
# Chain of Histamine H2 receptor (P25021 whole entry): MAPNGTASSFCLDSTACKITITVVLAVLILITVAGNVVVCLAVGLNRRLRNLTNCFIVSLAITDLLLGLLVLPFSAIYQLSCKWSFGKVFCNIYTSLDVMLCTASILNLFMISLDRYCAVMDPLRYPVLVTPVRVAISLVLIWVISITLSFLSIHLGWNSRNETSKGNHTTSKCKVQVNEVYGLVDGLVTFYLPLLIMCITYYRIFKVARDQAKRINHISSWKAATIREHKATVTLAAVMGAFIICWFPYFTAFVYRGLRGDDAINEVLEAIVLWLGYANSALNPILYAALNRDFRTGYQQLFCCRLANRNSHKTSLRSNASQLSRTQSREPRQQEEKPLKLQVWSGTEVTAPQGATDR
SMILES,IC50 (Cytochrome P450 2A6),Ki (Cytochrome P450 2A6),IC50 [1],IC50 [2],Ki [2],IC50 [3],IC50 (Histamine H2 receptor),IC50 [4],IC50 (Adenosine receptor A1),IC50 [5],Ki [5],IC50 ([1]; read-out: IC50),Ki [1]
CC(=O)OCC(=O)[C@@]1(O)CC[C@H]2[C@@H]3CCC4=CC(=O)CC[C@]4(C)[C@H]3C(=O)C[C@@]21C [CORTISONE ACETATE],Not Active,Not Active,Not Active,Not Active,Not Active,Not Active,Not Active,Not Active,Not Active,Not Active,Not Active,,
O=c1ccc2ccccc2o1 [COUMARIN],Not Active,Not Active,Not Active,Not Active,Not Active,Not Active,Not Active,Not Active,Not Active,Not Active,Not Active,,
CN(C)/N=N/c1[nH]cnc1C(N)=O [DACARBAZINE],Not Active,Not Active,Not Active,Not Active,Not Active,Not Active,Not Active,Not Active,Not Active,Not Active,Not Active,,
COc1ccc2c(c1)[C@]13CCCC[C@@H]1[C@H](C2)N(C)CC3 [DEXTROMETHORPHAN],Not Active,Not Active,Not Active,Not Active,Not Active,Not Active,Not Active,Not Active,Not Active,Not Active,Not Active,,
CC(=O)Nc1c(I)c(NC(C)=O)c(I)c(C(=O)O)c1I [DIATRIZOIC ACID],Not Active,Not Active,Not Active,Not Active,Not Active,Not Active,Not Active,Not Active,Not Active,Not Active,Not Active,,
COP(=O)(OC)OC=C(Cl)Cl [DICHLORVOS],Not Active,Not Active,Not Active,Not Active,Not Active,Not Active,Not Active,Not Active,Not Active,Not Active,Not Active,,
O=C(O)Cc1ccccc1Nc1c(Cl)cccc1Cl [DICLOFENAC],Not Active,Not Active,Not Active,Not Active,Not Active,Not Active,Not Active,Not Active,Not Active,Not Active,Not Active,,
C[C@H]1O[C@@H](O[C@H]2[C@@H](O)C[C@H](O[C@H]3[C@@H](O)C[C@H](O[C@H]4CC[C@@]5(C)[C@H](CC[C@@H]6[C@@H]5CC[C@]5(C)[C@@H](C7=CC(=O)OC7)CC[C@]65O)C4)O[C@@H]3C)O[C@@H]2C)C[C@H](O)[C@@H]1O [DIGITOXIN],Not Active,Not Active,Not Active,Not Active,Not Active,Not Active,Not Active,Not Active,Not Active,Not Active,Not Active,,
CCN1CC(CCN2CCOCC2)C(c2ccccc2)(c2ccccc2)C1=O (configuration not stated) [DOXAPRAM],Not Active,Not Active,Not Active,Not Active,Not Active,Not Active,Not Active,Not Active,Not Active,Not Active,Not Active,,
Cn1c(=O)c2c(ncn2CC2OCCO2)n(C)c1=O [DOXOFYLLINE],Not Active,Not Active,Not Active,Not Active,Not Active,Not Active,Not Active,Not Active,Not Active,Not Active,Not Active,,
COc1cccc2c1C(=O)c1c(O)c3c(c(O)c1C2=O)C[C@@](O)(C(=O)CO)C[C@@H]3O[C@H]1C[C@H](N)[C@H](O)[C@H](C)O1 [DOXORUBICIN],Not Active,Not Active,,Not Active,Not Active,Not Active,Not Active,Not Active,Not Active,Not Active,Not Active,12.5 µM,2.08 µM
COc1cccc2c1C(=O)c1c(O)c3c(c(O)c1C2=O)C[C@@](O)(C(=O)CO)C[C@@H]3O[C@H]1C[C@H](N)[C@@H](O)[C@H](C)O1 [EPIRUBICIN],Not Active,Not Active,,Not Active,Not Active,Not Active,Not Active,Not Active,Not Active,Not Active,Not Active,7.94 µM,1.32 µM
C[C@]12CC[C@@H]3c4ccc(OC(=O)c5ccccc5)cc4CC[C@H]3[C@@H]1CC[C@@H]2O [ESTRADIOL BENZOATE],Not Active,Not Active,Not Active,Not Active,Not Active,Not Active,Not Active,Not Active,Not Active,Not Active,Not Active,,
CC[C@@H](CO)NCCN[C@@H](CC)CO [ETHAMBUTOL],Not Active,Not Active,Not Active,Not Active,Not Active,Not Active,Not Active,Not Active,Not Active,Not Active,Not Active,,
CC1(C)O[C@@H]2C[C@H]3[C@@H]4C[C@H](F)C5=CC(=O)C=C[C@]5(C)[C@H]4[C@@H](O)C[C@]3(C)[C@]2(C(=O)CO)O1 [FLUNISOLIDE],Not Active,Not Active,Not Active,Not Active,Not Active,Not Active,Not Active,Not Active,Not Active,Not Active,Not Active,,
